Results as given in publication PMC10208570, “Peptidomimetic antibiotics disrupt the lipopolysaccharide transport bridge of drug-resistant Enterobacteriaceae” (Science Advances, 2023).
≈ marks a conversion by molar mass, not a printed value. Like-named read-outs stand apart in the source and are kept apart here. Where a SMILES comes first, the peptide text is derived from it. Bridges are numbered along the chain shown (N, C = ends). [ ]: non-standard residue; d: D form. The star is where a group is joined. Val(Nα-amidino) = CC(C)[C@H](NC(=N)N)C(=O)*; Hyp = O=C(O)[C@@H]1C[C@@H](O)CN1; Pen = CC(C)(S)[C@H](N)C(=O)O; dDab = NCC[C@@H](N)C(=O)O; Dab = NCC[C@H](N)C(=O)O

Experiments:
[1] = system: panel of 121 Enterobacteriaceae including CRE, MDR, and XDR isolates; assay: organism not typed; details: for MIC50 (n=121): CLSI microdilution method, 121 isolates
Protocol: (§1) MIC assays [Clinical and Laboratory Standards Institute (CLSI) methodology] and serial passage studies were performed as described by Luther et al. ([6]). […] Resistant mutants were isolated, and their MIC values were determined and sent to Microbes NG (Birmingham, United Kingdom) for whole-genome sequencing and bioinformatic analysis.

[2] = molecular target: T1, LptAm (Escherichia coli, UniProt P0ADV1); assay: biochemical; format: binding, E. coli
T1 construct: His6-GB1 (N, cleaved yes); made in house; host or cells: E. coli BL21 (DE3)
T1 sequence (P0ADV1 28-159): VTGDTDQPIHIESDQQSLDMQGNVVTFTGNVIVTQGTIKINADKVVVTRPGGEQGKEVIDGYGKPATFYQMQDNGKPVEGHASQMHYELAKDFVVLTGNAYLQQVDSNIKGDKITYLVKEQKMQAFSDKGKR
Protocol: (§2) Protein stocks were purified and concentrated in buffer 1 [50 mM Na-Pi (pH 7) and 150 mM NaCl] and, if necessary, diluted to desired concentrations using buffer 2 [50 mM Na-Pi (pH 7), 150 mM NaCl, and 0.05% Tween 20]. Peptide stocks and fluorescently labeled peptide stocks were made in buffer 2. Every serial dilution consisted of 24 wells, the first well with the highest concentrate and the last well (well 24) with the lowest. First, 50 μl of buffer 2 was added to the wells 2 to 24 of each serial dilution. Then, 100 μl of concentrated unlabeled peptide/protein in their respective buffers was added to the first well. Fifty microliters were taken from the first well and added to the second well for a 1:1 serial dilution and continued for the 24 wells. […] Plates were covered with adhesive seals and left to incubate overnight at 4°C before FP measurements the next day. Anisotropy was measured using the Tecan Safire2 plate reader using a 10-nm bandwidth and setting the excitation and emission wavelengths to 635 and 670 nm, respectively. The G-factor (G) was also determined empirically as 1.094 for the instrument and included in all the anisotropy calculations.
(§3) For the indirect binding assays, r was calculated in the same manner as the direct binding assays. […] The control was subtracted from r to yield r′. Data were fit to a sigmoidal interpolation model on GraphPad Prism 9, and an IC50 was generated for each unlabeled peptide or protein measured.

[3] = molecular target: T2, LptAmQ62L (Escherichia coli, UniProt P0ADV1, Q62L); assay: biochemical; format: binding, E. coli
T2 construct: His6-GB1 (N, cleaved yes); made in house; host or cells: E. coli BL21 (DE3)
T2 sequence (P0ADV1 28-159 Q62L): as the sequence (P0ADV1 28-159) above, with Q35L counted along it
Protocol: as §2, §3

[4] = system: Stenotrophomonas maltophilia; details: CLSI microdilution method; LptA sequence identity 25
Protocol: as §1

[5] = system: Salmonella enterica subsp. enterica; details: CLSI microdilution method; LptA sequence identity 91
Protocol: as §1

[6] = system: Morganella morganii; details: CLSI microdilution method; LptA sequence identity 57
Protocol: as §1

[7] = system: Providencia stuartii; details: CLSI microdilution method; LptA sequence identity 55
Protocol: as §1

[8] = system: Pantoea agglomerans; details: CLSI microdilution method; LptA sequence identity 69
Protocol: as §1

[9] = system: Hafnia alvei; details: CLSI microdilution method; LptA sequence identity 72
Protocol: as §1

[10] = system: Raoultella planticola; details: CLSI microdilution method; LptA sequence identity 84
Protocol: as §1

[11] = system: Proteus mirabilis; details: CLSI microdilution method; LptA sequence identity 54
Protocol: as §1

[12] = system: Citrobacter freundii; details: CLSI microdilution method; LptA sequence identity 92
Protocol: as §1

[13] = system: Enterobacter cloacae; details: CLSI microdilution method; LptA sequence identity 86
Protocol: as §1

[14] = system: Serratia marcescens; details: CLSI microdilution method; LptA sequence identity 64
Protocol: as §1

[15] = system: Klebsiella oxytoca; details: CLSI microdilution method; LptA sequence identity 100
Protocol: as §1

[16] = system: Providencia rettgeri; details: CLSI microdilution method; LptA sequence identity 54
Protocol: as §1

[17] = system: Proteus vulgaris; details: CLSI microdilution method; LptA sequence identity 55
Protocol: as §1

[18] = system: Escherichia coli; details: CLSI microdilution method; LptA sequence identity 100
Protocol: as §1

[19] = system: human red blood cells; assay: Haemolysis; format: cell-based; details: PBS-washed human red blood cells; 1 h at 200 mg/liter, 37°C; OD 540 nm; versus 100% lysis control 2.5% Triton X-100; biological replicates
Protocol: To test their hemolytic potential, compounds were incubated in the presence of phosphate-buffered saline (PBS)–washed human red blood cells. After 1-hour incubation at 200 mg/liter and 37°C, the samples were centrifuged (3220g), the supernatants were diluted in Dulbecco’s PBS, and optical density at 540 nm was determined. The hemolysis induced by the compound was calculated versus a 100% lysis control prepared with 2.5% Triton X-100 (table S4A).

[20] = Plasma protein binding; format: in vitro ADME, mouse; details: mass balance method, ultrafiltration 30-kDa cutoff; pooled mouse plasma adjusted to pH 7.5; 10 mg/liter; 30 min at 37°C; biological replicates; read-out: Plasma protein binding (% bound) Mouse (converted)
Protocol: (§4) After ultrafiltration, protein binding was determined by subtracting the percentage of compound in ultrafiltrate from the total amount of compound in spiked plasma (table S4A).

[21] = 7-day repeated dosing (IV bolus q12h); format: in vivo, CD-1 mice; details: mice, intravenous BID 15 mg/kg per dose, seven consecutive days
Protocol: Two different study designs were used to determine the potential toxicity of these compounds, when given BID via intravenous bolus (injection) 12 hours apart to CD-1 mice. In the first type of study, male mice were dosed on a single day at three escalating dose levels (three mice per group), while the second type of study male mice (nine mice per group) were dosed for seven consecutive days with the same administration regimen (q12h). […] Detailed clinical observations were conducted up to at least 3 hours after the first daily dosing and up to at least 1 hour after the second daily dosing. In addition, the Irwin battery of tests was used to assess the mice neurobiological and physiological state during the single day study at 30, 60, 120, 180, and 240 min after the first administration. The following parameters were included in the observations: occurrence of abnormal gait, catalepsy, piloerection, abnormal respiration, increase or decrease in spontaneous activity, spontaneous activity following audible stimuli (tapping on side of cage), touch response, and body tonus. Any additional symptoms observed were also reported.

[22] = Plasma protein binding; format: in vitro ADME, human; details: mass balance method, ultrafiltration 30-kDa cutoff; pooled human plasma adjusted to pH 7.5; 10 mg/liter; 30 min at 37°C; biological replicates; read-out: Plasma protein binding (% bound) Human (converted)
Protocol: as §4

Row | Compound | MIC50 (n=121) [1] | IC50 [2] | Ki [2] | IC50 [3] | Ki [3] | MIC Stenotrophomonas maltophilia [4] | MIC Salmonella enterica subsp. enterica [5] | MIC Morganella morganii [6] | MIC Providencia stuartii [7] | MIC Pantoea agglomerans [8] | MIC Hafnia alvei [9] | MIC Raoultella planticola [10] | MIC Proteus mirabilis [11] | MIC Citrobacter freundii [12] | MIC Enterobacter cloacae [13] | MIC Serratia marcescens [14] | MIC Klebsiella oxytoca [15] | MIC Providencia rettgeri [16] | MIC Proteus vulgaris [17] | MIC Escherichia coli [18] | further results
1 | CC[C@H](C)[C@H](NC(=O)[C@@H]1C[C@@H](O)CN1C(=O)[C@@H](N)C(C)C)C(=O)N[C@H](C(=O)N[C@@H](Cc1ccc(O)cc1)C(=O)N[C@@H]1C(=O)N[C@@H](CC(N)=O)C(=O)N[C@@H](CCCNC(=N)N)C(=O)N[C@@H](CCN)C(=O)N[C@@H]([C@@H](C)O)C(=O)N[C@H](CCN)C(=O)N[C@@H](CCCCN)C(=O)N[C@H](C(=O)N[C@@H](CCN)C(=O)N[C@@H](CCCNC(=N)N)C(=O)N[C@@H](Cc2ccc(O)cc2)C(=O)O)CSSC1(C)C)[C@@H](C)O [Compound 6] (H-V[Hyp]ITY[Pen]NR[Dab]T[dDab]KC[Dab]RY-OH; disulfide 6-13) | 0.25 µg/mL (≈ 0.128 µM) | 16.9 ± 1 nM | 2.8 ± 0.2 nM | 14.6 ± 2.5 nM | 9.9 ± 1.7 nM | > 8 µg/mL | 0.5 µg/mL (≈ 0.255 µM) | > 8 µg/mL | > 8 µg/mL | 4 µg/mL (≈ 2.04 µM) | 2 µg/mL (≈ 1.02 µM) | 0.06 µg/mL (≈ 0.0306 µM) | > 8 µg/mL | 0.13 µg/mL (≈ 0.0663 µM) | 0.13 µg/mL (≈ 0.0663 µM) | > 8 µg/mL | 0.25 µg/mL (≈ 0.128 µM) | > 8 µg/mL | > 8 µg/mL | 0.03 µg/mL (≈ 0.0153 µM) | MIC90 ([1]; panel of 121 Enterobacteriaceae including CRE, MDR, and XDR isolates): 1 µg/mL (≈ 0.51 µM); Haemolysis % at 0.2 g/L [19]: 0%; fraction unbound at 30 min, 10 mg/liter [20]: 0.11; Tolerability in repeat dose safety study [21]: well tolerated with no adverse events or detectable kidney toxicity; fraction unbound at 30 min, 10 mg/liter [22]: 0.38
2 | CC[C@H](C)[C@H](NC(=O)[C@@H]1C[C@@H](O)CN1C(=O)[C@@H](NC(=N)N)C(C)C)C(=O)N[C@H](C(=O)N[C@@H](Cc1ccc(O)cc1)C(=O)N[C@@H]1C(=O)N[C@@H](CC(N)=O)C(=O)N[C@@H](CCCNC(=N)N)C(=O)N[C@@H](CCN)C(=O)N[C@@H]([C@@H](C)O)C(=O)N[C@H](CCN)C(=O)N[C@@H](CCCCN)C(=O)N[C@H](C(=O)N[C@@H](CCN)C(=O)N[C@@H](CCCNC(=N)N)C(=O)N[C@@H](Cc2ccc(O)cc2)C(=O)O)CSSC1(C)C)[C@@H](C)O [Compound 7] ({Val(Nα-amidino)}-[Hyp]ITY[Pen]NR[Dab]T[dDab]KC[Dab]RY-OH; disulfide 5-12) | 0.25 µg/mL (≈ 0.125 µM) | 11.7 ± 0.5 nM | 1.9 ± 0.1 nM | 25.4 ± 4.6 nM | 17.2 ± 3.1 nM | > 8 µg/mL | 1 µg/mL (≈ 0.5 µM) | > 8 µg/mL | > 8 µg/mL | > 8 µg/mL | 4 µg/mL (≈ 2 µM) | 0.25 µg/mL (≈ 0.125 µM) | > 8 µg/mL | 0.5 µg/mL (≈ 0.25 µM) | 0.5 µg/mL (≈ 0.25 µM) | > 8 µg/mL | 0.5 µg/mL (≈ 0.25 µM) | > 8 µg/mL | > 8 µg/mL | 0.06 µg/mL (≈ 0.03 µM) | Haemolysis % at 0.2 g/L [19]: 0%; fraction unbound at 30 min, 10 mg/liter [20]: 0.06; Tolerability in repeat dose safety study [21]: well tolerated with no adverse events or detectable kidney toxicity; fraction unbound at 30 min, 10 mg/liter [22]: 0.19
